According to ChEMBL document CHEMBL1138694, “Discovery of small molecule antagonists of TRPV1” (2004):

What was measured:
[1] = biological target: Transient receptor potential cation channel subfamily V member 1 (Homo sapiens) (UniProt Q8NER1); test: Antagonistic activity against human transient receptor potential vanilloid type 1 in FLIPR assay; assay type: functional
[2] = Antagonistic activity against rat transient receptor potential vanilloid type 1 expressed in HEK293 cells compared to capsaicin; assay type: functional
[3] = Inhibition of capsaicin- response in rat dorsal root ganglion; assay type: functional
[4] = biological target: Transient receptor potential cation channel subfamily V member 1 (Cavia porcellus) (UniProt Q6R5A3); test: Antagonistic activity against guinea pig Transient receptor potential vanilloid type 1 expressed in HEK293 cells compared to capsaicin
Chain of Transient receptor potential cation channel subfamily V member 1 (Cavia porcellus) (Q6R5A3 whole entry, looked up): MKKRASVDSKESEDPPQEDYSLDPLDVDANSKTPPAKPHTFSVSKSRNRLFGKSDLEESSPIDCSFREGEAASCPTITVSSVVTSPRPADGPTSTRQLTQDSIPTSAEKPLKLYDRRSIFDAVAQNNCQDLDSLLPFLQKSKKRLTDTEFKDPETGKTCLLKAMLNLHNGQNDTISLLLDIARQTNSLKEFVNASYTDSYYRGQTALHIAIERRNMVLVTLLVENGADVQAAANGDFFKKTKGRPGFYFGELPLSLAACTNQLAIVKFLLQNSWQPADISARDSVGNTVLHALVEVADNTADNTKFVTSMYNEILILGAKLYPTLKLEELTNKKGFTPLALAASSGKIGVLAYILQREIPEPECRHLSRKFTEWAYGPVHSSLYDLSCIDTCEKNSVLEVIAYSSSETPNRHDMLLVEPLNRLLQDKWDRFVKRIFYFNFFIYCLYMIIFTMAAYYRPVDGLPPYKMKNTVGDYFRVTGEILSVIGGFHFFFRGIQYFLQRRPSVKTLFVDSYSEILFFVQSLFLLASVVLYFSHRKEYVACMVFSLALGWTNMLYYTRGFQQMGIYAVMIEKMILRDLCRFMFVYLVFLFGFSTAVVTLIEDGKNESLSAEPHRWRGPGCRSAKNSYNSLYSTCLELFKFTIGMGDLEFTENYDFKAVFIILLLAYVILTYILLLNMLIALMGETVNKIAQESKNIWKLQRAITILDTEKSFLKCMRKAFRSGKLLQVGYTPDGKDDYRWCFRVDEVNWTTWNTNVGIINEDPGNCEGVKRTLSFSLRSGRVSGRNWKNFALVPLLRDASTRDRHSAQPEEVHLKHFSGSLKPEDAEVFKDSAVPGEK

Chain of Transient receptor potential cation channel subfamily V member 1 (Homo sapiens) (Q8NER1 whole entry): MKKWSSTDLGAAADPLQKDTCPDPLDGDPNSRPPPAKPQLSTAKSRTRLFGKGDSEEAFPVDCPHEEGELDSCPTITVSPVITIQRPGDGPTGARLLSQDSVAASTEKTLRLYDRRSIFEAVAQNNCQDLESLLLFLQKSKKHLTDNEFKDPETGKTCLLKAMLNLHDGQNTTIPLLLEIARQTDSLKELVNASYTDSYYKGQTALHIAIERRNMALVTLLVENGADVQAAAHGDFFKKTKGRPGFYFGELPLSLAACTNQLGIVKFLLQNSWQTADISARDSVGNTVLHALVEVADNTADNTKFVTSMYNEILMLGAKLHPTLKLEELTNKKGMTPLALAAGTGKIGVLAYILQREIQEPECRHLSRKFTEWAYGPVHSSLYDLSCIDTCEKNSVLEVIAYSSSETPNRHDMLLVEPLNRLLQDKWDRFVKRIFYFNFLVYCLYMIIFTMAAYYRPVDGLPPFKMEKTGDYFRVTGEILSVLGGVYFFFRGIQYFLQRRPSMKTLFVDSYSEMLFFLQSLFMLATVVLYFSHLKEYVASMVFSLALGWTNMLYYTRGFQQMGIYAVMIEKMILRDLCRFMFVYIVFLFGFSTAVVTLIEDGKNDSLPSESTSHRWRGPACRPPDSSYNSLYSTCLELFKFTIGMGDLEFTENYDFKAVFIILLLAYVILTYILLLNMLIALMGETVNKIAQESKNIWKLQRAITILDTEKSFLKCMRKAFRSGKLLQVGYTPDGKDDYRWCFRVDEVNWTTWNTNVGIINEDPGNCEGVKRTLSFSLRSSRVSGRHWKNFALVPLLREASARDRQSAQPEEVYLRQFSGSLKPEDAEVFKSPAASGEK

| Compound | pKb [1] | pKb [2] | pKb [3] | pKb [4] |
| --- | --- | --- | --- | --- |
| COc1cccc(NC(=O)/C=C/c2ccc(Cl)cc2)c1 | 7.7 | – | – | – |
| CCN(CCNC(=O)Nc1ccccc1Br)c1cccc(C)c1 | 7.8 | 7.7 | 7.4 | 7.5 |
| Oc1cc2c(cc1O)CN(C(=S)NCCc1ccc(Cl)cc1)CCC2 | 7.5 | – | – | – |
